This is an account of results in a melting point compilation (Tetko et al.).

The conditions of the data set: a range is the spread between reports.
One may read the melting point as the temperature of the solid-liquid transition. With `CC(C)C(=O)OC(=O)C(C)C`, the melting point is -56 to -53.5 °C.

Compound `c1ccc(Cc2ccncc2)cc1` registered a melting point of 10 to 12.4 °C.

As for `CCSSCC`, the melting point is -102 °C.

Turning to `CC(C)(O)C(C)(C)O`, the melting point lay within 43 to 44 °C.

In the case of `CC(=O)Oc1ccccc1[N+](=O)[O-]`, the melting point is 40 to 40.5 °C.

Regarding `COc1ccc(C=O)c2ccccc12`, the melting point is 34 to 34.8 °C.

Compound `CN(C)C(=O)C(c1ccccc1)c1ccccc1` registered a melting point of 134 to 135 °C.

As for `C=C(C)[C@@H]1CCC2=CC(=O)C[C@@H](C)[C@]2(C)C1`, the melting point lay within 36 to 36.9 °C.

For `Cc1cc(C2(c3ccc(O)c(C)c3)OC(=O)c3ccccc32)ccc1O`, the melting point lay within 223 to 224 °C.

As for `CCCCC(=O)OCC`, the melting point was -91.2 to -91 °C.

`C1CNCCNC1` returned a melting point of 41 to 43.5 °C.

Consider `C=Cc1ccc(O)cc1`, for which the melting point is 73 to 73.5 °C.

For `COC(C)(C)C`, the melting point was -109 °C.

`CCCOC(=O)c1ccc(N)cc1` had a melting point of 74 to 75 °C.

As for `Oc1cc(Cl)ccc1Oc1ccc(Cl)cc1Cl`, the melting point lay in the range of 55.6 to 57 °C.

`O=C(O)CCCc1ccc(N(CCCl)CCCl)cc1` gave a melting point of 64 to 65 °C.

Turning to `CCCCCCCC(C)O` (configuration not stated), the melting point was -35.5 to -35 °C.

On to `CC(C)(Cl)Cl`, for which the melting point is -34 to -33.8 °C.

As to `c1ccc2c(c1)ccc1cccnc12`, the melting point lay in the range of 50 to 52 °C.

Consider `COCCOCCOC`, for which the melting point is -68 to -64 °C.

Consider `O=S(=O)(Cl)c1ccc(Cl)cc1`, for which the melting point lay in the range of 51 to 52 °C.

With `O=C(O)c1ccsc1`, the melting point lay in the range of 138 to 139 °C.

In turn, `CC(C)S` registered a melting point of -131 to -130 °C.

In turn, `Cc1ccc(C(C)C)cc2c(C)ccc1-2` came in with a melting point of 31.5 to 32 °C.

Regarding `CC=C(C)CC`, the melting point was -138 to -135 °C.

Compound `O=P(Oc1ccccc1)(Oc1ccccc1)Oc1ccccc1` registered a melting point of 50 to 50.5 °C.

Compound `Oc1c(Cl)cc(Cl)c(Cl)c1Cc1c(O)c(Cl)cc(Cl)c1Cl` had a melting point of 164 to 166 °C.

`Cc1ccc(CN)cc1` displayed a melting point of 12 to 12.5 °C.

In turn, `Nc1cccc2ccc(O)cc12` returned a melting point of 206 to 208 °C.

In the case of `CC(=O)c1ccc(O)cc1O`, the melting point was in the range of 144 to 146 °C.

For the compound `N#CI`, the melting point lay in the range of 146 to 147 °C.

With `CCCC(C)(C)O`, the melting point was -103 to -102 °C.

`C1=CCCCCCC1` gave a melting point of -16 to -12 °C.

Compound `Cc1cccc(C(=O)O)c1C` displayed a melting point of 145 to 146 °C.

Turning to `Oc1ccccc1-c1nc2ccccc2s1`, the melting point was in the range of 131 to 132 °C.

`O=C(O)CCCCCCCCCCCCCCCO` returned a melting point of 98 to 99 °C.

In turn, `C=CCBr` returned a melting point of -119 °C.

As to `OCCc1c[nH]c2ccccc12`, the melting point is 58 to 59 °C.

Turning to `CC(C)(CC(=O)O)CC(=O)O`, the melting point is 101 to 104 °C.

In turn, `Oc1cccc(Cl)c1` yielded a melting point of 32 to 34 °C.

The compound `Cc1ccc2ccccc2n1` returned a melting point of -2 to -1.5 °C.

Regarding `COC(=O)CCCCC(=O)OC`, the melting point lay within 8 to 10.3 °C.

The compound `O=C(O)CCSCCC(=O)O` displayed a melting point of 129 to 131 °C.

`Nc1ccc(O)cc1` gave a melting point of 188 to 189 °C.

Take `CCCCCCCCP(=O)(CCCCCCCC)CCCCCCCC`: the melting point lay within 52 to 55 °C.

On to `Brc1ccc2c(c1)Cc1ccccc1-2`, for which the melting point lay within 112 to 114 °C.

Take `CC(C)(C)c1cccc(C(C)(C)C)c1O`: the melting point fell in the range of 36.5 to 39 °C.

As to `Oc1ccccc1F`, the melting point is 15 to 16.1 °C.

On to `NC(=O)c1c(F)cccc1F`, for which the melting point was 146 to 147 °C.

In turn, `C=CCNCC=C` gave a melting point of -88.4 to -88 °C.

In turn, `CCCN(CCC)CCC` came in with a melting point of -94 to -93 °C.

`NC(=S)Nc1ccccc1` had a melting point of 149 to 154 °C.

Compound `Cc1cc(C)c(O)c(C)c1` displayed a melting point of 72 to 73 °C.

Regarding `Nc1ccc2ccccc2c1`, the melting point lay in the range of 112 to 113 °C.

Compound `CCOc1ccccc1C(=O)O` yielded a melting point of 20 to 20.7 °C.

Regarding `CN(C)C(N)=O`, the melting point lay within 180 to 184 °C.

`CC(C)Cl` returned a melting point of -118 to -117 °C.

Consider `c1ccc2c(c1)Sc1ccccc1S2`, for which the melting point amounted to 159 °C.

As for `O=C(O)c1cccc(Oc2ccccc2)c1`, the melting point was 148 to 150 °C.

On to `BrCC(Br)CBr`, for which the melting point fell in the range of 16 to 17 °C.

In turn, `CC(C)[N+](=O)[O-]` displayed a melting point of -93 to -91.3 °C.

In turn, `c1ccc(N=C(Nc2ccccc2)Nc2ccccc2)cc1` yielded a melting point of 144 to 146 °C.

In turn, `C=CC(C)CC` (configuration not stated) gave a melting point of -154 to -153 °C.

`C=CBr` had a melting point of -139 to -138 °C.

`CC(=O)c1ccc(Br)cc1` had a melting point of 50.5 to 51 °C.

Compound `Cc1cccc(C(N)=O)c1` yielded a melting point of 95 to 96 °C.

As to `O=C(O)CCl`, the melting point was in the range of 61.5 to 63 °C.

Take `CC(=O)N[C@@H](Cc1ccc(O)cc1)C(=O)O`: the melting point was 149 to 153 °C.

`Cc1cc(C)c(C)c(C)c1C` gave a melting point of 54 to 54.5 °C.

The compound `CC(C)(C)c1ccc(N)cc1` yielded a melting point of 15 to 17 °C.

`CCc1ccc(O)cc1O` registered a melting point of 97 to 98.5 °C.

In the case of `CN(C)c1ccc(C(=O)O)cc1`, the melting point lay within 242 to 243 °C.

In the case of `O=[N+]([O-])c1ccc(Cl)c([N+](=O)[O-])c1`, the melting point fell in the range of 50 to 53 °C.

In the case of `CCC(CC)CC`, the melting point is -119 °C.

For `Cc1ccc(N)cc1N`, the melting point lay within 97 to 99 °C.

The compound `Cn1c(=O)ccc2ccccc21` showed a melting point of 74 to 75 °C.

For the compound `COc1ccccc1OC(=O)c1ccccc1`, the melting point was 57.5 to 59 °C.

In turn, `Clc1ccc(Br)cc1` yielded a melting point of 65 to 68 °C.

In turn, `CC12CCC3C(CCC4CC(OCc5ccccc5)CCC43C)C1CCC2=O` (configuration not stated) registered a melting point of 216 to 220 °C.

As to `CCCCCCCCCCCCCCCC(=O)Cl`, the melting point lay in the range of 11 to 12 °C.

Compound `Clc1ccccn1` showed a melting point of -46.5 to -46 °C.

The compound `O=P(O)(O)CCCl` returned a melting point of 70 to 74.5 °C.

Consider `CCCCCCCCS`, for which the melting point is -49.2 to -49 °C.

The compound `c1ccc2c(c1)Cc1ccccc1C2` showed a melting point of 108 to 111 °C.

With `CCCCC1CCCCC1`, the melting point is -78 to -74.7 °C.

For `CCC(CC)C(C)(C)C`, the melting point is -99.3 to -99 °C.

Compound `C[Si](C)(C)C` registered a melting point of -100 to -99 °C.

In turn, `CCCCCCCC#N` yielded a melting point of -46 to -45 °C.

Turning to `c1ccc(-c2nc3ccccc3s2)cc1`, the melting point lay within 114 to 115 °C.

In turn, `Cc1ccc(N)cc1F` came in with a melting point of 31 to 33 °C.

`CCOc1ccc(O)cc1`: the melting point is 66 to 66.5 °C.

As to `ClC(Cl)C(Cl)Cl`, the melting point was -44 to -43 °C.

`O=C(O)CCC(=O)c1ccc(-c2ccccc2)cc1` returned a melting point of 186 °C.

In turn, `CN` returned a melting point of -93.4 to -93 °C.

The compound `Oc1cccc2ccccc12` registered a melting point of 95 to 96 °C.

With `COc1ccc(N)cc1Cl`, the melting point lay in the range of 50 to 52.5 °C.

`O=Cc1ccc([N+](=O)[O-])o1` showed a melting point of 35.5 to 36 °C.

`CCCCC(O)CCC` (configuration not stated) displayed a melting point of -41 to -40.7 °C.

As to `CCCCCCCN`, the melting point was -23 to -18 °C.

`O=C1OC(=O)C2C3C=CC(C3)C12` (configuration not stated) had a melting point of 164 to 166 °C.

`Cc1csc(N)n1` came in with a melting point of 44 to 45.5 °C.

As for `CC(=O)CCC(=O)O`, the melting point lay in the range of 29 to 33 °C.

`NC(=O)c1ccc(C(F)(F)F)cc1` returned a melting point of 184 to 185 °C.

As for `CC(=O)c1ccc(C#N)cc1`, the melting point was 57 to 59 °C.

`O=C(O)c1ccccc1C(F)(F)F`: the melting point lay within 109 to 111 °C.

On to `O=C1C(F)=C(F)C(=O)C(F)=C1F`, for which the melting point was in the range of 179 to 184 °C.

Turning to `C=C(C)CC(C)C`, the melting point is -124 °C.

As to `Nc1ccc(S(=O)(=O)Nc2nccs2)cc1`, the melting point was 200 to 202 °C.

For `O=C(NNc1ccccc1)NNc1ccccc1`, the melting point was 170 to 173 °C.

`NC(=O)Oc1ccccc1` registered a melting point of 150 to 151 °C.

The compound `CCCCCCCCCCCCO` yielded a melting point of 24 to 26 °C.

The compound `O=C(Cl)c1cccc([N+](=O)[O-])c1` came in with a melting point of 33 to 36 °C.

Turning to `BrCCCCOc1ccccc1`, the melting point fell in the range of 41 to 42 °C.

For `O=C(Oc1ccc2ccccc2c1)c1ccccc1`, the melting point was in the range of 105 to 107 °C.

Regarding `CN(C)CC(=O)O`, the melting point was 181 to 186 °C.

In the case of `CCOc1cc(C=O)ccc1O`, the melting point was 77 to 77.5 °C.

In turn, `COc1cc(C#N)cc(OC)c1OC` yielded a melting point of 93 to 94 °C.

`OCc1ccccc1Cl`: the melting point was in the range of 70 to 73 °C.

For the compound `Clc1ccccc1I`, the melting point is 0.7 to 1 °C.

Regarding `CCc1cccc(-c2ccccc2)c1`, the melting point was -28 to -27.5 °C.

For `Cc1ccc(O)c(C(C)(C)C)c1`, the melting point lay within 51.5 to 52 °C.

The compound `CC(C)(C)CCC(C)(C)C` came in with a melting point of -13 to -12.6 °C.

`O=C1CCC(c2ccccc2)CC1` displayed a melting point of 79.5 to 80 °C.

As to `COc1cc(Cl)cc(Cl)c1`, the melting point was in the range of 40 to 41 °C.

Turning to `CCC(C)C(C)(C)C` (configuration not stated), the melting point was -112 °C.

For the compound `CCCCCCCCI`, the melting point is -46 to -44 °C.

With `CC(=O)Oc1ccccc1OC(C)=O`, the melting point was 64 to 64.5 °C.

Take `ClCCCl`: the melting point was -36 to -35 °C.

As to `CCCCCCBr`, the melting point was -85 to -84.7 °C.

In the case of `CC(=O)NCCCCCC(=O)O`, the melting point was 104 °C.

`CCc1ccc2ccccc2c1` returned a melting point of -7.45 to -7.35 °C.

Compound `CCc1ccc2c(c1)C(=O)c1ccccc1C2=O` had a melting point of 109 to 110 °C.

For `CC#CC(=O)O`, the melting point was in the range of 77 to 78 °C.

The compound `CCOc1ccc(C(C)(C)COCc2cccc(Oc3ccccc3)c2)cc1` yielded a melting point of 36 to 37 °C.

`N#Cc1ccccn1` registered a melting point of 27 to 29 °C.

On to `OCc1cc(Cl)cc(Cl)c1`, for which the melting point fell in the range of 78 to 80.5 °C.

`CC(=O)Nc1cccc(C(F)(F)F)c1` had a melting point of 104 to 105 °C.

`Clc1cc(Cl)cc(I)c1` registered a melting point of 56 to 57 °C.

Compound `COC(=O)c1ccc(O)cc1` registered a melting point of 127 to 131 °C.

With `CC(=O)CCC(C)=O`, the melting point is -7 to -5.5 °C.

For the compound `CCCCCCCCCCCCCCCCCCCCCCCCCCC`, the melting point fell in the range of 59 to 59.5 °C.

As for `COc1cc(C=O)ccc1O`, the melting point fell in the range of 81.5 to 82 °C.
